Source: PubChem BioAssay AID330 (DTP/NCI, 2004)
Where “and” joins values, the source holds several entries; their conditions need not be identical. Equal entries are not always repeated. Inconclusive results and toxic doses are left out.

Test system: P388 leukemia ip, CD2F1 mice, survival T/C
Assay: NCI In Vivo Anticancer Drug Screen. Data for tumor model P388 Leukemia (intraperitoneal) in CD2F1 (CDF1) mice
Conditions: endpoint: median survival time, higher = longer survival
Summary of the method: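 Mice carrying the transplanted tumor received test compound or vehicle. Survival was recorded in each group, and the value is the treated-group measurement divided by that of the vehicle-treated control group.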

[1] = dose: 100.0 mg/kg/injection, schedule: Q04DX003 (ip), vehicle: saline with Tween-80
[2] = dose: 200.0 mg/kg/injection, schedule: Q04DX003 (ip), vehicle: saline with Tween-80
[3] = dose: 400.0 mg/kg/injection, schedule: Q04DX003 (ip), vehicle: saline with Tween-80
[4] = dose: 25.0 mg/kg/injection, schedule: Q01DX009 (ip), vehicle: Klucel (hydroxypropylcellulose) (HPC)
[5] = dose: 50.0 mg/kg/injection, schedule: Q01DX009 (ip), vehicle: Klucel (hydroxypropylcellulose) (HPC)
[6] = dose: 7.5 mg/kg/injection, schedule: Q01DX005 (ip), vehicle: saline with Tween-80
[7] = dose: 15.0 mg/kg/injection, schedule: Q01DX005 (ip), vehicle: saline with Tween-80
[8] = dose: 30.0 mg/kg/injection, schedule: Q01DX005 (ip), vehicle: saline with Tween-80
[9] = dose: 100.0 mg/kg/injection, schedule: Q01DX009 (ip), vehicle: Klucel (hydroxypropylcellulose) (HPC)
[10] = dose: 200.0 mg/kg/injection, schedule: Q01DX009 (ip), vehicle: Klucel (hydroxypropylcellulose) (HPC)
[11] = dose: 50.0 mg/kg/injection, schedule: Q01DX005 (ip), vehicle: saline with Tween-80
[12] = dose: 100.0 mg/kg/injection, schedule: Q01DX005 (ip), vehicle: saline with Tween-80
[13] = dose: 200.0 mg/kg/injection, schedule: Q01DX005 (ip), vehicle: saline with Tween-80
[14] = dose: 12.5 mg/kg/injection, schedule: Q01DX009 (ip), vehicle: saline with Tween-80
[15] = dose: 25.0 mg/kg/injection, schedule: Q01DX009 (ip), vehicle: saline with Tween-80
[16] = dose: 50.0 mg/kg/injection, schedule: Q01DX009 (ip), vehicle: saline
[17] = dose: 100.0 mg/kg/injection, schedule: Q01DX009 (ip), vehicle: saline
[18] = dose: 200.0 mg/kg/injection, schedule: Q01DX009 (ip), vehicle: saline
[19] = dose: 60.0 mg/kg/injection, schedule: Q01DX005 (ip), vehicle: Klucel (hydroxypropylcellulose) (HPC)
[20] = dose: 120.0 mg/kg/injection, schedule: Q01DX005 (ip), vehicle: Klucel (hydroxypropylcellulose) (HPC)
[21] = dose: 240.0 mg/kg/injection, schedule: Q01DX005 (ip), vehicle: Klucel (hydroxypropylcellulose) (HPC)

In the case of `CCOC(=O)C(CCCCC(NC(C)=O)(C(=O)OCC)C(=O)OCC)(NC(C)=O)C(=O)OCC`, the T/C [1] is reported as 100 % of control, the T/C [2] is reported as 100 % of control and the T/C [3] is reported as 95 % of control.
With `Cc1nc(C)c(Cl)c(OS(=O)(=O)CCCCl)c1Cl` the T/C [4] was 110 % of control (2×) and 92 % of control, the T/C (dose: 35.0 mg/kg/injection, schedule: Q01DX009 (ip), vehicle: Klucel (hydroxypropylcellulose) (HPC)) was 110 % of control and 95 % of control and the T/C [5] was 105 % of control and 120 % of control and 95 % of control. The T/C (dose: 75.0 mg/kg/injection, schedule: Q01DX009 (ip), vehicle: Klucel (hydroxypropylcellulose) (HPC)) was 94 % of control.
In the case of `O=C1c2ccc(-c3ccccc3)cc2C(=O)c2cc3c(cc21)OCO3`, the T/C [6] is reported as 110 % of control, the T/C [7] is reported as 100 % of control and the T/C [8] is reported as 92 % of control.
With `CC(/C=C/c1ccc(Cl)cc1)=N\NC(N)=S` the T/C [6] was 100 % of control, the T/C [7] was 120 % of control and the T/C [8] was 124 % of control.
With `O=C1OC(=O)C2C3C=CC(C12)C1C2C(=O)OC(=O)C2C31` (stereo not drawn) the T/C [1] was 103 % of control, the T/C [2] was 99 % of control and the T/C [3] was 96 % of control. The T/C (dose: 600.0 mg/kg/injection, schedule: Q04DX003 (ip), vehicle: saline with Tween-80) was 96 % of control.
For `CCC(=O)c1ccc(OS(=O)(=O)O)cc1`, the T/C [5] was 96 % of control, the T/C [9] was 103 % of control and the T/C [10] was 99 % of control.
For `COc1ccc2ccc3nonc3c2c1`, the T/C [11] was 92 % of control, the T/C [12] was 99 % of control and the T/C [13] was 91 % of control.
`COc1cccc(C=O)c1OC(=O)Oc1ccccc1` was tested, and the T/C (dose: 3.13 mg/kg/injection, schedule: Q01DX009 (ip), vehicle: distilled water + Tween-80) was 111 % of control and 95 % of control, the T/C (dose: 6.25 mg/kg/injection, schedule: Q01DX009 (ip), vehicle: distilled water + Tween-80) was 111 % of control and the T/C (dose: 12.5 mg/kg/injection, schedule: Q01DX009 (ip), vehicle: distilled water + Tween-80) was 100 % of control and 104 % of control. The T/C (dose: 25.0 mg/kg/injection, schedule: Q01DX009 (ip), vehicle: distilled water + Tween-80) was 109 % of control and 113 % of control and 114 % of control and the T/C (dose: 50.0 mg/kg/injection, schedule: Q01DX009 (ip), vehicle: distilled water + Tween-80) was 100 % of control and 103 % of control.
With `CCN1c2ccccc2Sc2cc(C=O)ccc21` the T/C [5] was 91 % of control, the T/C [9] was 107 % of control and the T/C [10] was 101 % of control.
In the case of `O=[n+]1c2c(n([O-])c3ccccc31)-c1cccc3cccc-2c13`, the T/C (dose: 12.5 mg/kg/injection, schedule: Q01DX010 (ip), vehicle: saline) is reported as 100 % of control, the T/C (dose: 25.0 mg/kg/injection, schedule: Q01DX010 (ip), vehicle: saline) is reported as 100 % of control and the T/C (dose: 50.0 mg/kg/injection, schedule: Q01DX010 (ip), vehicle: saline) is reported as 100 % of control. For the same compound, the T/C (dose: 100.0 mg/kg/injection, schedule: Q01DX010 (ip), vehicle: saline) was 100 % of control.
In the case of `CC(C)CNC1=CC(=O)c2ccccc2C1=O`, the T/C (dose: 50.0 mg/kg/injection, schedule: Q04DX003 (ip), vehicle: saline with Tween-80) is reported as 106 % of control, the T/C [1] is reported as 108 % of control and the T/C [2] is reported as 92 % of control.
In the case of `O=NN(CCS(=O)CCCl)C(=O)NC1CCCCC1` (stereo not drawn), the T/C (dose: 3.13 mg/kg/injection, schedule: Q01DX009 (ip), vehicle: water) is reported as 102 % of control, the T/C (dose: 6.25 mg/kg/injection, schedule: Q01DX009 (ip), vehicle: water) is reported as 110 % of control and the T/C (dose: 12.5 mg/kg/injection, schedule: Q01DX009 (ip), vehicle: water) is reported as 111 % of control. The T/C (dose: 25.0 mg/kg/injection, schedule: Q01DX009 (ip), vehicle: water) was 124 % of control and the T/C (dose: 100.0 mg/kg/injection, schedule: Q01DX009 (ip), vehicle: water) was 159 % of control.
With `CSc1ccc2c(c1)C(N1CCN(C)CC1)Cc1ccccc1S2` (stereo not drawn) the T/C (dose: 6.25 mg/kg/injection, schedule: Q01DX009 (ip), vehicle: saline with Tween-80) was 106 % of control and 107 % of control and 114 % of control, the T/C [14] was 103 % of control and 107 % of control and 95 % of control and the T/C (dose: 12.5 mg/kg/injection, schedule: Q01DX009 (ip), vehicle: saline) was 117 % of control. The T/C [15] was 86 % of control and 95 % of control and the T/C (dose: 25.0 mg/kg/injection, schedule: Q01DX009 (ip), vehicle: saline) was 118 % of control.
With `CC(=O)OCC1(OC(=O)CC(C)C)COC(O)C2C(C=O)=CC=C21` (stereo not drawn) the T/C (dose: 3.12 mg/kg/injection, schedule: Q01DX005 (ip), vehicle: Klucel (hydroxypropylcellulose) (HPC)) was 102 % of control, the T/C (dose: 6.25 mg/kg/injection, schedule: Q01DX005 (ip), vehicle: Klucel (hydroxypropylcellulose) (HPC)) was 100 % of control and the T/C (dose: 12.5 mg/kg/injection, schedule: Q01DX005 (ip), vehicle: Klucel (hydroxypropylcellulose) (HPC)) was 101 % of control.
`CN1CCC2(CCNCC2)C1=O` was tested, and the T/C [16] was 86 % of control, the T/C [17] was 100 % of control and the T/C [18] was 95 % of control.
With `ClC(Cl)=Nc1cc(Cl)c(Cl)cc1Cl` the T/C [16] was 99 % of control, the T/C [17] was 90 % of control and the T/C [18] was 97 % of control.
For `[Cl][Pt+2][Cl].[NH-]C(c1ccc(Cl)cc1)C([NH-])c1ccc(Cl)cc1` (stereo not drawn), the T/C (dose: 6.25 mg/kg/injection, schedule: Q04DX002 (ip), vehicle: saline with Tween-80) was 124 % of control.
`C=CCN(C=O)CC(OCC)OCC` was tested, and the T/C (dose: 25.0 mg/kg/injection, schedule: Q01DX005 (ip), vehicle: saline with Tween-80) was 100 % of control, the T/C [11] was 97 % of control and the T/C [12] was 99 % of control.
With `Nc1nnc2nc(C3(c4nc5nnc(N)n5[nH]c4=O)Cc4ccccc4C3=O)c(=O)[nH]n12` the T/C [11] was 91 % of control, the T/C [12] was 100 % of control and the T/C [13] was 108 % of control.
With `C=C(CCS(=O)c1ccccc1)CC(CC(=C)COC(C)=O)S(=O)(=O)c1ccccc1` (stereo not drawn) the T/C [19] was 99 % of control, the T/C [20] was 99 % of control and the T/C [21] was 98 % of control.
With `N#CCCSC(=S)C1CCCC1=N` (stereo not drawn) the T/C [14] was 114 % of control and 123 % of control, the T/C [15] was 110 % of control and 116 % of control and the T/C (dose: 50.0 mg/kg/injection, schedule: Q01DX009 (ip), vehicle: saline with Tween-80) was 104 % of control and 109 % of control. For the same compound, the T/C (dose: 100.0 mg/kg/injection, schedule: Q01DX009 (ip), vehicle: saline with Tween-80) was 102 % of control and 116 % of control.
`CC(=O)c1c(-c2nc(=S)[nH]c(C)c2C(C)=O)nc(=S)[nH]c1C` was tested, and the T/C [19] was 106 % of control, the T/C [20] was 100 % of control and the T/C [21] was 90 % of control.
For `C/C(C(=O)NC1CC1)=C(\C)c1ccc(Br)cc1`, the T/C (dose: 50.0 mg/kg/injection, schedule: Q04DX003 (ip), vehicle: Klucel (hydroxypropylcellulose) (HPC)) was 99 % of control, the T/C (dose: 100.0 mg/kg/injection, schedule: Q04DX003 (ip), vehicle: Klucel (hydroxypropylcellulose) (HPC)) was 99 % of control and the T/C (dose: 200.0 mg/kg/injection, schedule: Q04DX003 (ip), vehicle: Klucel (hydroxypropylcellulose) (HPC)) was 98 % of control.
In the case of `CC(=O)Nc1ccsc1S(=O)(=O)c1sccc1NC(C)=O`, the T/C (dose: 100.0 mg/kg/injection, schedule: Q04DX002 (ip), vehicle: saline with Tween-80) is reported as 100 % of control, the T/C (dose: 200.0 mg/kg/injection, schedule: Q04DX002 (ip), vehicle: saline with Tween-80) is reported as 99 % of control and the T/C (dose: 400.0 mg/kg/injection, schedule: Q04DX002 (ip), vehicle: saline with Tween-80) is reported as 98 % of control.
With `COc1ccc(C(c2cc(C(C)(C)C)cc(C(C)(C)C)c2O)N2CCCCC2)cc1` (stereo not drawn) the T/C (dose: 50.0 mg/kg/injection, schedule: Q01DX005 (ip), vehicle: distilled water + alcohol) was 97 % of control, the T/C (dose: 100.0 mg/kg/injection, schedule: Q01DX005 (ip), vehicle: distilled water + alcohol) was 100 % of control and the T/C (dose: 200.0 mg/kg/injection, schedule: Q01DX005 (ip), vehicle: distilled water + alcohol) was 99 % of control.
With `Cc1cn(C2CC(O)C(Cn3ccc4ccccc43)O2)c(=O)[nH]c1=O` (stereo not drawn) the T/C (dose: 1.56 mg/kg/injection, schedule: Q01DX009 (ip), vehicle: Klucel (hydroxypropylcellulose) (HPC)) was 103 % of control, the T/C (dose: 3.13 mg/kg/injection, schedule: Q01DX009 (ip), vehicle: Klucel (hydroxypropylcellulose) (HPC)) was 99 % of control and the T/C (dose: 6.25 mg/kg/injection, schedule: Q01DX009 (ip), vehicle: Klucel (hydroxypropylcellulose) (HPC)) was 99 % of control. The T/C (dose: 12.5 mg/kg/injection, schedule: Q01DX009 (ip), vehicle: Klucel (hydroxypropylcellulose) (HPC)) was 99 % of control and the T/C [4] was 97 % of control.
